Values joined by “and” are separate entries in the source; they are usually repeats but may differ in a detail not shown here. Equal entries are not always repeated.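 Each compound was tested at five concentrations against cells in 96-well plates for 48 hours. Abbreviation: GI50, concentration required for 50% inhibition of growth. TGI: total growth inhibition.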 Numbered stars: 1 amine (or outer) side, 2 acyl side, 3 side chain; on linkers, the order of the positions; unused ones are H or OH. Bridge positions count the residues as written; N and C are the ends. Square brackets hold non-standard residues; d marks the D form. Peptide text beside a SMILES is read from it. I, II: the chains in the order shown. Actinocin(1to9) = Cc1c2oc3c(C)ccc(C(=O)[*:2])c3nc-2c(C(=O)[*:1])c(N)c1=O; NMeY = CN[CH](Cc1ccc(O)cc1)C(=O)O; Sar = CNCC(=O)O
Key:
Assay in all cases: NCI tumour cell line growth inhibition, 48 h
[1] = system: HOP-92 NSCLC
[2] = system: M14 melanoma
[3] = system: UACC-257 melanoma
[4] = system: TK-10 renal
[5] = system: SF-539 CNS
[6] = system: MDA-MB-231 breast
[7] = system: MCF7 breast
[8] = system: HS 578T breast
[9] = system: RPMI-8226 leukemia
[10] = system: HT29 colon

SMILES	GI50 [1]	TGI [1]	GI50 [2]	TGI [2]	GI50 [3]	TGI [3]	GI50 [4]	TGI [4]	GI50 [5]	TGI [5]	GI50 [6]	TGI [6]	GI50 [7]	TGI [7]	GI50 [8]	TGI [8]	GI50 [9]	TGI [9]	GI50 [10]	TGI [10]
Cc1ccc(C(=O)NC2CC2)cc1-c1ccc2[nH]ncc2c1	6.22 µM	> 25 µM	> 25 µM	> 25 µM	> 25 µM	> 25 µM	> 25 µM	> 25 µM	> 25 µM	> 25 µM	> 25 µM	> 25 µM	> 25 µM	> 25 µM	> 19.5 µM	> 25 µM	> 25 µM	> 25 µM	> 25 µM	> 25 µM
CN(C)CCCNc1nc2ccccc2c2[nH]c3ccccc3c12	1.26 µM	3.83 µM	1.11 µM	2.46 µM	3.48 µM	14.7 µM	1.45 µM	4.04 µM	0.654 µM	1.9 µM	0.907 µM	2.16 µM	0.417 µM	1.81 µM	3.04 µM	9.61 µM	0.811 µM	1.95 µM	0.163 µM	33 µM
CN1CCN(CCCOc2cc(O)c3c(=O)cc(-c4ccccc4)oc3c2)CC1	14.5 µM	42.9 µM			19.4 µM	41.1 µM	20.5 µM	48.3 µM	17.2 µM	33.1 µM	16.3 µM	31.7 µM	15.3 µM	30 µM	23 µM	52.9 µM	21.3 µM	55.2 µM	14.5 µM	30.4 µM
CNC(=O)c1cncc(/C=C/c2ccccc2Cl)c1	12.6 µM	> 25 µM	> 25 µM	> 25 µM	> 25 µM	> 25 µM	> 25 µM	> 25 µM	> 25 µM	> 25 µM	> 25 µM	> 25 µM	> 25 µM	> 25 µM	24.5 µM	> 25 µM	> 25 µM	> 25 µM	> 25 µM	> 25 µM
CN(N)c1nc(N)c(C#N)c(C#N)c1C#N		> 10 µM		> 10 µM		> 10 µM		> 10 µM		> 10 µM		> 10 µM		> 10 µM		> 10 µM		> 10 µM		> 10 µM
COc1cc(C(=O)c2cocc2C(=O)c2ccc3c(c2)OCO3)cc(OC)c1OC		35.4 µM		33.5 µM		> 45.7 µM		47.2 µM		1.45 µM		48.5 µM		> 100 µM		5.27 µM		32.3 µM		5.98 µM
CNC(=O)c1ccccc1Nc1nc(Nc2ccc3c(c2OC)CCC[C@H](N2CCN(CCO)CC2)C3)ncc1Cl	0.154 µM and 0.148 µM	1.64 µM and 0.863 µM	1.02 µM and 0.51 µM	3.44 µM and 2.78 µM	1.52 µM and 1.29 µM	3.87 µM and 3.42 µM	2.97 µM and 0.656 µM	18.2 µM and > 10 µM	1.95 µM and 4.38 µM	5.31 µM and > 10 µM	1.34 µM and 1.62 µM	3.26 µM and 7.04 µM	0.37 µM and 0.374 µM	11.2 µM and > 10 µM	2.13 µM and 2.4 µM	16.2 µM and > 10 µM	1.8 µM and 2.95 µM	7.08 µM and > 10 µM	0.329 µM and 0.256 µM	10.5 µM and 1.27 µM
COC(C)C(O)(C(=O)OCC1=CCN2CCC(O)C12)C(C)(C)O (stereo not drawn)		> 100 µM		> 100 µM		> 100 µM		> 100 µM		> 100 µM		> 100 µM		> 100 µM		> 100 µM		> 100 µM		> 100 µM
COc1ccc(CC2C(=O)OC(C)C(NC(=O)c3c4nc5c(C(=O)NC6C(=O)NC(C(C)C)C(=O)N7CCCC7C(=O)N(C)CC(=O)N(C)C(Cc7ccc(OC)cc7)C(=O)OC6C)ccc(C)c5oc-4c(C)c(=O)c3N)C(=O)NC(C(C)C)C(=O)N3CCCC3C(=O)N(C)CC(=O)N2C)cc1 (stereo not drawn) (I: TVP[Sar][NMeY](Me) / II: TVP[Sar][NMeY](Me); ester I:1-I:C, II:1-II:C; linker I:N-II:N via Actinocin(1to9); configuration not given here)	< 0.01 µM and 0.035 µM		< 0.01 µM and 0.0665 µM					2.69 µM and 0.969 µM					< 0.01 µM and 0.003 µM	1.29 µM and > 1 µM	< 0.01 µM and 0.00387 µM	< 0.01 µM and 0.0411 µM		< 0.01 µM	< 0.01 µM and 0.00275 µM	
CCOC(=O)/C=C/c1cccc(F)c1		> 100 µM		> 100 µM		> 100 µM		> 100 µM		> 100 µM		> 100 µM		> 100 µM				> 100 µM		> 100 µM
CCOC(=O)C1=C(C)NC(c2ccco2)=C(C#N)C1c1cccc([N+](=O)[O-])c1 (stereo not drawn)			0.0132 µM	3.28 µM	0.0882 µM	26.2 µM	3.06 µM	49.4 µM		0.0128 µM	0.0443 µM	4.53 µM	0.0339 µM	20.8 µM		0.0885 µM	0.0658 µM		0.01 µM	0.562 µM
COCCNc1cncc(C(N)=O)c1				> 100 µM		> 100 µM		> 100 µM		> 100 µM		> 100 µM		> 100 µM		> 100 µM				> 100 µM
C=C1C[C@@H]2C[C@@H](C)CC(O)[C@]2(CCCN)C1O (stereo partly drawn)		> 100 µM		> 100 µM		> 100 µM		> 100 µM		> 100 µM								> 100 µM		> 100 µM
CC(=O)Oc1ccc2c(c1)C(=O)c1nc(C)c(C)nc1C2=O		> 100 µM		> 100 µM		> 66.4 µM		> 100 µM		55.4 µM								> 100 µM		> 91.7 µM
COC(=O)N/N=C(\C)CC(=O)Nc1ccc(Cl)cc1		> 100 µM		> 100 µM		> 100 µM		> 100 µM		> 100 µM								> 100 µM		> 100 µM
C[CH2][Sn]([CH2]C)([O]C(=O)c1ccc(F)cc1)[O]C(=O)c1ccc(F)cc1	12.7 µM	26 µM	17.5 µM	33.4 µM	19.7 µM	41 µM	17.8 µM	32.4 µM	16.4 µM	30.1 µM							20.1 µM	53.9 µM	63.8 µM	> 100 µM
COc1ccc([C@@H]2OC(=O)C3C2C(=O)O[C@H]3c2ccc(OC)c(OC)c2)cc1OC (stereo partly drawn)		> 100 µM		> 100 µM		> 100 µM		> 100 µM		> 100 µM								> 100 µM		> 100 µM
O=c1c2cc3ccccc3n2c(=O)c2cc3ccccc3n12		> 100 µM		> 100 µM		> 100 µM		> 100 µM		> 100 µM								> 100 µM		> 100 µM

— PubChem BioAssay (NCI)
